Entries after “also recorded” stand apart in the source; their conditions may differ. Read-outs that look alike come from different tables or passages of the source.
What was measured:
[1] = test system: Jurkat E6.1 human T acute lymphoblastic leukemia cell line; assay: WST-1 cytotoxicity assay on Jurkat E6.1 cells; details: for Selectivity Index (SI): IC50 non-cancerous cell line (WIL2-NS) / IC50 leukemia cell line (Jurkat E6.1); for IC50: read-out: Value of IC50 Jurkat E6.1; for kind of effect on the cells (cytostatic or cytotoxic): Jurkat E6.1, WST-1, up to 5.0 μM, 24 h
Experimental: (§1) The Jurkat E6.1 (TIB-152™) and WIL2-NS (CRL-8155™) cell lines were purchased from the American Type Culture Collection. These cells were cultured in Roswell Park Memorial Institute Medium 1640, RPMI-1640 supplemented with 10% Fetal Bovine Serum (FBS) and 1% penicillin-streptomycin to obtain the complete growth medium. The cells were incubated at 37 °C with 5% CO2 (New Brunswick Galaxy 170 S, Hamburg, Germany).
(§2) Jurkat E6.1 and WIL2-NS cell lines were cultured in 75 cm^2 flasks and seeded in 96-well culture plates with a final concentration of 1 × 10^6 cells/mL. The cells were exposed to organotin(IV) dithiocarbamate compounds with the highest concentration of 5.0 μM. Vincristine was used in this study as a positive control with its highest concentration, at 5.0 μM, while untreated cells (cells and complete medium only) were used as the negative control. Serial dilution methods are used to obtain the desired concentration gradient and the cells were then exposed to the compounds overnight (24 h). After the incubation period, the WST-1 solution (Roche, Basel, Switzerland) was added in a ratio of 1:10 to the suspension volume in the wells and incubated for another 4 h. Finally, the cells’ optical density (OD) was measured using an ELISA microplate reader (Multiskan FC, Thermo Scientific, Waltham, MA, USA) at 440 nm wavelength. The data obtained were analyzed using GraphPad Prism software (Dotmatics) to determine the IC50 values.
(§3) The selectivity index is determined by dividing the cytotoxic activity (IC50 value) of each compound on a non-cancerous cell line (WIL2-NS) to a leukemia cell line (Jurkat E6.1) using the following equation:SI = IC50 for non cancerous cell line IC50 for cancerous cell line

[2] = test system: WIL2-NS non-cancerous cells; assay: WST-1 cytotoxicity assay on WIL2-NS cells; type: cell-based; details: read-out: Value of IC50 WIL2-NS
Experimental: as §1, §2

[3] = test system: Jurkat E6.1 cells; assay: Annexin V-FITC/PI apoptosis assay (mode of cell death) by flow cytometry; type: cell-based, human; details: Jurkat E6.1, treated at IC50 concentration, 24 h; for cell population in early apoptotic phase / cell population in late apoptotic phase: mean ± SEM; for total apoptosis population: early + late apoptosis
Experimental: Apoptosis assay was performed according to the manufacturer’s instructions using Annexin V-FITC/PI staining kit (BD Biosciences, East Rutherford, NJ, USA). The Jurkat E6.1 cells were seeded in a 6-well plate with a final concentration of 5.0 × 10^5 cell/mL. […] After the incubation period, 500 μL of cells were harvested and transferred into a microcentrifuge tube. The sample was centrifuged at 1500 rpm for 5 min at 4 °C (Mikro 200R, Hettich, Kirchlengern, Germany) and the supernatant was discarded, and 500 μL of cold PBS was added to the sample followed by another centrifugation for 5 min, then the supernatant was discarded. Next, 150 μL of Annexin V binding buffer and 5.0 μL of Annexin V-FITC were added to the sample in the dark and then incubated for 15 min at room temperature. After that, 3.0 μL of propidium iodide (PI) was added to the samples. The samples then incubated for another 2 min at room temperature. Finally, 350 μL of Annexin V binding buffer was added to the samples and transferred into Falcon tubes. The samples were then analyzed using a BD FACS Canto II flow cytometer (BD Bioscience, East Rutherford, NJ, USA).

[4] = test system: Jurkat E6.1 cells; assay: Cell cycle analysis with RNase/PI stain by flow cytometry; type: cell-based, human; details: Jurkat E6.1, treated at IC50 concentration, 24 h; for cells in G0/G1 phase / cells in G2/M phase / cells in S phase: mean ± SEM
Experimental: Cell cycle analysis was performed according to the manufacturer’s instructions using PI/RNase Staining Buffer (BD Bioscience, East Rutherford, NJ, USA). For this assay, the Jurkat E6.1 cell line was cultured in 6-well culture plates with a final concentration of 1.0 × 10^6 cells/mL and treated with organotin(IV) dithiocarbamate compounds for 24 h, with vincristine as the positive control. The concentration of each treatment used was based on the IC50 values obtained from the WST-1 assay. After the incubation period, 500 µL of cell suspension was washed twice with cold PBS and fixed overnight with 500 µL of 70% ethanol. The cells were then stained with 500 µL RNase/PI stain and measured using a BD FACS Canto II flow cytometer (BD Bioscience, East Rutherford, NJ, USA). The cell cycle phases were analyzed using the ModFit LT software (Verity Software House).

[5] = in vitro; details: human
Experimental: as §1, §2, §3

[6] = test system: Jurkat E6.1 cells; set-up: method as in earlier work; details: ref 31 (Kamaludin et al.); cited from earlier work
[7] = WST-1, 24 h exposure, highest concentration 5.0 μM, mean ± SEM, n = 3

| SMILES | Selectivity Index (SI) [1] | IC50 [1, 7] | IC50 [2, 7] | cell population in early apoptotic phase [3] | cell population in late apoptotic phase [3] | total apoptosis population [3] | Phases of Cell Cycle Arrest [4] | cells in G0/G1 phase [4] | cells in G2/M phase [4] | cells in S phase [4] | kind of effect on the cells (cytostatic or cytotoxic) [1] | Value of IC50 Jurkat E6.1 [1, 7] | viability at 24 h, 0.3 µM [5] | IC50 ([1]; Homo sapiens, Jurkat E6.1, 24 h) | IC50 ([2]; Homo sapiens, WIL2-NS, 24 h) | IC50 [6] |
| --- | --- | --- | --- | --- | --- | --- | --- | --- | --- | --- | --- | --- | --- | --- | --- | --- |
| CC(C)N(C(=S)[S][Sn]([S]C(=S)N(C(C)C)C(C)C)([c]1ccccc1)[c]1ccccc1)C(C)C [ODTC 1, diphenyltin(IV) diisopropyl dithiocarbamate] | 0.96 | 1.45 ± 0.02 µM | 1.39 ± 0.46 µM | 12.23 ± 1.93% | 13.17 ± 1.13% | 25.4% | does not cause cell cycle arrest at any phase; also recorded: Not cell cycle specific | – | – | – | – | – | – | – | – | – |
| C=CCN(CC=C)C(=S)[S][Sn]([S]C(=S)N(CC=C)CC=C)([c]1ccccc1)[c]1ccccc1 [ODTC 2, diphenyltin(IV) diallyl dithiocarbamate] | 0.50 | 1.05 ± 0.02 µM | 0.52 ± 0.14 µM | 17.20 ± 2.69% | 30.07 ± 2.38% | 47.27% | – | 21.63% ± 3.17 | 19.03% ± 0.20 | 59.37% ± 3.07 | – | – | – | – | – | – |
| CC(C)N(C(=S)[S][Sn]([c]1ccccc1)([c]1ccccc1)[c]1ccccc1)C(C)C [ODTC 3, triphenyltin(IV) diisopropyl dithiocarbamate] | 1.11 | 0.67 ± 0.06 µM | 0.75 ± 0.07 µM | 59.70 ± 1.96% | 27.80 ± 2.17% | 87.5% | – | 68.37% ± 4.78 | 4.34% ± 0.99 | 27.29% ± 5.12 | – | – | – | – | – | – |
| C=CCN(CC=C)C(=S)[S][Sn]([c]1ccccc1)([c]1ccccc1)[c]1ccccc1 [ODTC 4, triphenyltin(IV) diallyl dithiocarbamate] | 0.71 | 0.94 ± 0.08 µM | 0.67 ± 0.14 µM | 49.70 ± 2.84% | 38.63 ± 2.73% | 88.33% | – | 13.22% ± 2.30 | 22.67% ± 3.54 | 64.10% ± 4.46 | – | – | – | – | – | – |
| CCN(CC)C(=S)[S][Sn]([c]1ccccc1)([c]1ccccc1)[c]1ccccc1 [ODTC 5, triphenyltin(IV) diethyl dithiocarbamate] | 0.86 | 0.92 ± 0.05 µM | 0.79 ± 0.05 µM | 56.50 ± 1.64% | 26.47 ± 1.23% | 82.97 ± 2.84% | – | 9.84% ± 0.71 | 31.46% ± 2.86 | 58.70% ± 3.37 | – | – | – | – | – | – |
| CC(C)N(C(=S)[S][Sn]([CH3])([CH3])[S]C(=S)N(C(C)C)C(C)C)C(C)C [ODTC 6, dimethyltin(IV) diisopropyl dithiocarbamate] | – | – | 5 ± 0.02 µM | – | – | – | – | – | – | – | cytostatic effect | does not produce IC50 value at the tested range of concentration | – | – | – | – |
| CCN(CC)C(=S)[S][Sn]([CH3])([CH3])[S]C(=S)N(CC)CC [ODTC 7, dimethyltin(IV) diethyl dithiocarbamate] | 0.15 | 3.4 ± 0.25 µM | 0.5 ± 0.02 µM | 13.13 ± 2.62% | 14.93 ± 1.35% | 28.06% | – | 23.41% ± 5.37 | 17.39% ± 4.52 | 57.19% ± 2.89 | – | – | – | – | – | – |
| CC[C@]1(O)C[C@H]2CN(CCc3c([nH]c4ccccc34)[C@@](C(=O)OC)(c3cc4c(cc3OC)N(C=O)[C@H]3[C@@](O)(C(=O)OC)[C@H](OC(C)=O)[C@]5(CC)C=CCN6CC[C@]43[C@@H]65)C2)C1 [Vincristine (positive control), Vincristine, reference compound] | 0.96 | – | – | 36.07 ± 2.85% | 18.57 ± 1.31% | 54.64% | – | 66.76% ± 1.39 | 8.00% ± 0.00 | 25.24% ± 1.39 | cytostatic effects | – | 40% | 0.24 ± 0.02 µM | 0.23 ± 0.03 µM | – |
| COc1cccc2c1C(=O)c1c(O)c3c(c(O)c1C2=O)C[C@@](O)(C(=O)CO)C[C@@H]3O[C@H]1C[C@H](N)[C@H](O)[C@H](C)O1 [doxorubicin] | – | – | – | – | – | – | – | – | – | – | – | – | – | – | – | 0.1 µM |

— paper PMC10143845, “Series of Organotin(IV) Compounds with Different Dithiocarbamate Ligands Induced Cytotoxicity, Apoptosis and Cell Cycle Arrest on Jurkat E6.1, T Acute Lymphoblastic Leukemia Cells” (Molecules, 2023)
